Test results from ChEMBL document CHEMBL1201862, “PubChem BioAssay data set” (2004).
The source made the active and inactive calls.

Assays:
Aminopeptidase N = target: T1, Aminopeptidase N (Plasmodium falciparum FcB1/Columbia, UniProt O96935); assay: P. falciparum M1AAP inhibitors, biochemical, fluorogenic H-Leu-NHMec substrate, 1536-well (AID 1445); set-up: species or system Plasmodium falciparum 3D7, 3D7
T1 sequence (O96935 whole entry): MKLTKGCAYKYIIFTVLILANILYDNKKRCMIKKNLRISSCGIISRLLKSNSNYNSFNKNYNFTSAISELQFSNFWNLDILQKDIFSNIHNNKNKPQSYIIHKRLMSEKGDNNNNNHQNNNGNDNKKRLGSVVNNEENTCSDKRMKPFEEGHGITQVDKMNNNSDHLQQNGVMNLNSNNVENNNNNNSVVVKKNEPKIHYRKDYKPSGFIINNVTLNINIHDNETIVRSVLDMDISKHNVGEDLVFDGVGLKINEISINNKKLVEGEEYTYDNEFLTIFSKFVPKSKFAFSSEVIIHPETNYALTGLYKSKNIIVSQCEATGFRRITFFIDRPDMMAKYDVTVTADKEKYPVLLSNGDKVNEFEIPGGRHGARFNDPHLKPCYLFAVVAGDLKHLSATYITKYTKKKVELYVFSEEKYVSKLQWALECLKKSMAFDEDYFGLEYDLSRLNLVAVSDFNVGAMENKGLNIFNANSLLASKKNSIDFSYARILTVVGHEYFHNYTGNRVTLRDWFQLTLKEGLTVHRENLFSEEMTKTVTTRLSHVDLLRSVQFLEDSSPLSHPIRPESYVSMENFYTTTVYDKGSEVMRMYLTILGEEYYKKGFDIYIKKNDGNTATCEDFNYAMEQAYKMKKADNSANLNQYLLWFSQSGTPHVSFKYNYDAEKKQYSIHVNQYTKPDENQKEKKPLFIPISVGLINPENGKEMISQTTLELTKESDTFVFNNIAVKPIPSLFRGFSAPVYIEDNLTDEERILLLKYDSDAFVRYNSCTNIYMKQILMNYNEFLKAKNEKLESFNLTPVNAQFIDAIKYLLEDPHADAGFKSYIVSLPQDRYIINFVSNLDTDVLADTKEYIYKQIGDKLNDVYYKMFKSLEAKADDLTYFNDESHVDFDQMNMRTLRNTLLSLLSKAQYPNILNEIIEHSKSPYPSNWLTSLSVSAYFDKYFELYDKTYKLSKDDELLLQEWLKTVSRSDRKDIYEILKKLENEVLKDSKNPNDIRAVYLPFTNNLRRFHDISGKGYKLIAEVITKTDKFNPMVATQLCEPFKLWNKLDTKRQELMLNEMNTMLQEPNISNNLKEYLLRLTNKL

[1] = target: Sphingosine 1-phosphate receptor 2 (Homo sapiens, UniProt O95136); assay: Dose Response Cell Based Assay for Agonists of the S1P2 Receptor. [Related pubchem assays: 729, 736, 843 ]; type: functional
H4 = assay: Luminescence Cell-Based Dose Response HTS to Identify Activators of 5'UTR Stem-Loop Driven Prion Protein mRNA Translation in H4 Neuroglioblastoma Cells. [Related pubchem assays: 1829 (Project Summary), 1814 (Primary HTS)]; type: functional; settings: Homo sapiens
[2] = Luminescence Cell-Based Dose Response HTS to Identify Activators of Luciferase Translation or Activity in H4 […] Cells. [Related pubchem assays: 1829 (Project Summary), 1814 (Primary HTS)]; type: functional
[3] = Luminescence Cell-Based Dose Response to Identify Activators of Luciferase Translation or Activity in H4-C Neuroglioblastoma Cells. [Related pubchem assays: 1829 (Project Summary), 1814 (Primary HTS)]; type: functional
[4] = Luminescence Cell-Based Dose Confirmation to Identify Activators of 5'UTR Stem-Loop Driven Alpha-Synuclein mRNA Translation in H4 Neuroglioblastoma Cells. [Related pubchem assays: 1829 (Project Summary), 1814 (Primary HTS)]; type: functional
[5] = Luminescence Cell-Based Dose Response to Identify Activators of 5'UTR Stem-Loop Driven Prion Protein mRNA Translation in H4-C Neuroglioblastoma Cells. [Related pubchem assays: 1829 (Project Summary), 1814 (Primary HTS)]; type: functional
Bcl-2-related protein A1 [6] = target: T2, Bcl-2-related protein A1 (Mus musculus, UniProt Q07440); assay: Bfl-1 inhibitors, primary screen, biochemical, fluorescence polarization, FITC-Bid, mouse (AID 432)
T2 sequence (Q07440 whole entry): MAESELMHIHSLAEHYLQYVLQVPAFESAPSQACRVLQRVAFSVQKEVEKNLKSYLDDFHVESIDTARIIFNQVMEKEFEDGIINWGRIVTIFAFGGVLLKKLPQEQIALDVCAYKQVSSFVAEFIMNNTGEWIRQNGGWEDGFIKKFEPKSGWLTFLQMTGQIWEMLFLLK

Bcl-2-related protein A1 [7] = target: T2, Bcl-2-related protein A1; assay: Bfl-1 inhibitors blocking BH3 peptide binding, confirmation, biochemical, TR-FRET, mouse Bfl-1 (AID 621);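 further: TR-FRET binding of GST-Bfl-1 to FITC-labelled Bid peptide via terbium antibody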
HEK293 [8] = assay: NOD1 signaling inhibitors, primary screen, cell-based, luminescence, uHTS (AID 1578); type: functional; settings: Homo sapiens
HEK293 [9] = assay: cells; type: functional, cell-based; settings: Homo sapiens
[10] = insulin promoter down-regulators in MIN6 cells, imaging, high-content screening, mouse beta cells (AID 1628); type: functional
HEK293 [11] = assay: cells; type: functional, cell-based; settings: Homo sapiens; remark: listed apart in the source
Genome polyprotein [12] = target: Genome polyprotein (Hepatitis C virus, UniProt Q2Q167); assay: HCV core protein dimerization inhibitors, dose response, biochemical, TR-FRET (AID 2159); set-up: species or system Hepacivirus hominis;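 further: blocks dimerization of HCV core protein measured by TR-FRET between tagged core106 pairs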
[13] = cytotoxicity in MIN6 insulinoma cells, dose response, cytotoxicity control, cell-based, mouse insulinoma (AID 2122); type: functional;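 further: confirmatory high-throughput counterscreen run to flag cytotoxic compounds; mouse MIN-6 beta cells carrying an insulin promoter eGFP reporter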
Streptococcus = assay: Group A Streptococcus viability loss, dose response, counter-screen for streptokinase expression inhibitor project, luminescence, BacTiterGlo (AID 1915); type: functional, organism-based;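 further: potency for reduction of bacterial viability or growth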
[14] = tested on: Streptococcus sp. 'group A'; assay: growth inhibition of control SK(-) GAS strain, dose response, counter-screen for streptokinase expression inhibitor project, luminescence, kanamycin, BacTiterGlo, confirmation (AID 1900); type: functional, organism-based
HEK293 [15] = assay: NOD2 signaling inhibitors in MDP-stimulated cells, cell-based, uHTS, luminescence (AID 2001); type: functional; settings: Homo sapiens
Genome polyprotein [16] = target: Genome polyprotein (dengue virus type 2, UniProt P29990); assay: Dengue-2 NS5 methyltransferase inhibitors, primary screen, biochemical, confirmation dose response (AID 588689); type: functional
[17] = target: T3, Mannose-6-phosphate isomerase (Homo sapiens, UniProt P34949); assay: human PMI inhibitors, high substrate, primary screen, biochemical, fluorescence intensity, high mannose 6-phosphate (AID 1220)
T3 sequence (P34949 whole entry): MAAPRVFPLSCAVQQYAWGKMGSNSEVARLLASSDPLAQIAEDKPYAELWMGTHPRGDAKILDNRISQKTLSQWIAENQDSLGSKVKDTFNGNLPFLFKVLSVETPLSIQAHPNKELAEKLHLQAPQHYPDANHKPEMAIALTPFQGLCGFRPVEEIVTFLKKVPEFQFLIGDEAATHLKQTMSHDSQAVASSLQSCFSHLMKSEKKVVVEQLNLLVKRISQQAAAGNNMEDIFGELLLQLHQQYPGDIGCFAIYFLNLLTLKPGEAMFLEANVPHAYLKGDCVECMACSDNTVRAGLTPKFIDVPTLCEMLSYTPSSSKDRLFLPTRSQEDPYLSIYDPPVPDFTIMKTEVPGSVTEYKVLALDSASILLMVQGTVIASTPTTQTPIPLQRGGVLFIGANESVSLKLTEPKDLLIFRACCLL

[18] = target: Ras and Rab interactor 1/Tyrosine-protein kinase ABL1 (Homo sapiens, UniProt P00519+Q13671); type: functional;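 further: biochemical TR-FRET dose-response test measuring inhibition of binding between Rin1 and Abl proteins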
[19] = target: T3, Mannose-6-phosphate isomerase; assay: inhibitors of human PMI, primary screen, biochemical, fluorescence intensity, coupled assay (AID 1209)

Sequence of Sphingosine 1-phosphate receptor 2 (O95136 whole entry): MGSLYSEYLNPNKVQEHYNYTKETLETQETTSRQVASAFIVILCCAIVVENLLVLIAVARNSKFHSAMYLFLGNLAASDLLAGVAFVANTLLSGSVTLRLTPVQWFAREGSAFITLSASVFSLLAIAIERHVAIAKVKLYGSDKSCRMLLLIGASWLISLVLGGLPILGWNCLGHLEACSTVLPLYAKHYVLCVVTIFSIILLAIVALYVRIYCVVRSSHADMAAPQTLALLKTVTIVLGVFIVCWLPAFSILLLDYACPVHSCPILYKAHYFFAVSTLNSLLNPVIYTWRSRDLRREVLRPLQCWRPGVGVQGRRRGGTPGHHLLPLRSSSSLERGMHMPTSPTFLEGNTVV
Sequence of Genome polyprotein (Hepatitis C virus, UniProt Q2Q167) (Q2Q167 whole entry): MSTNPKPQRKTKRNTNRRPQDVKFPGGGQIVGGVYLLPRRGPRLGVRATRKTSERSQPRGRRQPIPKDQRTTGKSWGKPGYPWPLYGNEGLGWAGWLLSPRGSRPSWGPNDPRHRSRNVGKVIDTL
Sequence of Ras and Rab interactor 1/Tyrosine-protein kinase ABL1 (P00519 whole entry): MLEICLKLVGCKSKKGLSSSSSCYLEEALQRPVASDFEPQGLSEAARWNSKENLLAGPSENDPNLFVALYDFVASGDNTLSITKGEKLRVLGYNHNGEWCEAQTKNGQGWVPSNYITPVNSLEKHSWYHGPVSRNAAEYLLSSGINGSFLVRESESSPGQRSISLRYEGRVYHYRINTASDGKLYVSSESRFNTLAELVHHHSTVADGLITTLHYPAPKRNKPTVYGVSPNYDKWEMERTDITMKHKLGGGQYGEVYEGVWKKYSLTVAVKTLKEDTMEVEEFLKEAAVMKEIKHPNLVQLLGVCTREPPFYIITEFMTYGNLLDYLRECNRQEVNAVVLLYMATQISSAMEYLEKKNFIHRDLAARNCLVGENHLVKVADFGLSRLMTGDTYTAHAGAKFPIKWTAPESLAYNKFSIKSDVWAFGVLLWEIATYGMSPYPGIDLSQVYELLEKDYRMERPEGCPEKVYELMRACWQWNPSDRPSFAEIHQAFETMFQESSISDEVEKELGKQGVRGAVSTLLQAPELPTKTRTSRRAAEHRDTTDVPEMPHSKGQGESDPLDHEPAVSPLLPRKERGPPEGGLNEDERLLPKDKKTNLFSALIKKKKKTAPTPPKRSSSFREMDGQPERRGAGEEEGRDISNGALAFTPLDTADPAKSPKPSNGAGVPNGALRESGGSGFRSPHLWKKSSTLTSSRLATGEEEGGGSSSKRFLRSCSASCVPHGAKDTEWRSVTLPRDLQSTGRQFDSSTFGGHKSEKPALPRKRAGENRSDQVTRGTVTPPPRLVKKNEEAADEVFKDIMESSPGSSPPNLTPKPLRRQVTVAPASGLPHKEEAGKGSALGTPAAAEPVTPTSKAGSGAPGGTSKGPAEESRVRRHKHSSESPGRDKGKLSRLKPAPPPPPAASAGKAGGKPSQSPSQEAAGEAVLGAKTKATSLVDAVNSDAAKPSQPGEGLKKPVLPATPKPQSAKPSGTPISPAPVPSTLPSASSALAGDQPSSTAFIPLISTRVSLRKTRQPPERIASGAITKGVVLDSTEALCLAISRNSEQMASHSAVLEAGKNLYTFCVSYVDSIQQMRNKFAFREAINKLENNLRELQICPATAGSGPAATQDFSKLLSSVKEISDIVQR
Sequence of Ras and Rab interactor 1/Tyrosine-protein kinase ABL1 (Q13671 whole entry): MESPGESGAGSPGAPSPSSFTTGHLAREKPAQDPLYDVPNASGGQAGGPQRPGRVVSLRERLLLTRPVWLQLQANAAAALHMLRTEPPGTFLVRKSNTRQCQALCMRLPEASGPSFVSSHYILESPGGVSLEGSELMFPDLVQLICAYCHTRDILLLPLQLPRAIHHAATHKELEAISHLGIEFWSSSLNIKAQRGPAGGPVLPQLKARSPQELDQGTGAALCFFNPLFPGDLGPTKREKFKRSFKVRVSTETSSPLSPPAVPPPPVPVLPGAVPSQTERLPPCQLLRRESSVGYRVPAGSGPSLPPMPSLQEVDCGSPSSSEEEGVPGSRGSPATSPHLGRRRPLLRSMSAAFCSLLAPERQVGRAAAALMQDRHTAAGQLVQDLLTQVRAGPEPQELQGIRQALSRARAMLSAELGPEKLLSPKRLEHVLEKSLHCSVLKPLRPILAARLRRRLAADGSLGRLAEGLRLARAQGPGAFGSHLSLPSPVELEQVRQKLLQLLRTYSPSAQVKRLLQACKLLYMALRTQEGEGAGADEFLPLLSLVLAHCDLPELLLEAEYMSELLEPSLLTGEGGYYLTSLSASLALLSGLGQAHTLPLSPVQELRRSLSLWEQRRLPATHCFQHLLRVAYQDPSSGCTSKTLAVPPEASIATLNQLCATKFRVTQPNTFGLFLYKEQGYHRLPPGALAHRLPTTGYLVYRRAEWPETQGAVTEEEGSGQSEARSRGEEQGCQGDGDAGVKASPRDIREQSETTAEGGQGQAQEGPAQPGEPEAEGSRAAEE
Sequence of Genome polyprotein (dengue virus type 2, UniProt P29990) (P29990 2492-3391 limits assumed): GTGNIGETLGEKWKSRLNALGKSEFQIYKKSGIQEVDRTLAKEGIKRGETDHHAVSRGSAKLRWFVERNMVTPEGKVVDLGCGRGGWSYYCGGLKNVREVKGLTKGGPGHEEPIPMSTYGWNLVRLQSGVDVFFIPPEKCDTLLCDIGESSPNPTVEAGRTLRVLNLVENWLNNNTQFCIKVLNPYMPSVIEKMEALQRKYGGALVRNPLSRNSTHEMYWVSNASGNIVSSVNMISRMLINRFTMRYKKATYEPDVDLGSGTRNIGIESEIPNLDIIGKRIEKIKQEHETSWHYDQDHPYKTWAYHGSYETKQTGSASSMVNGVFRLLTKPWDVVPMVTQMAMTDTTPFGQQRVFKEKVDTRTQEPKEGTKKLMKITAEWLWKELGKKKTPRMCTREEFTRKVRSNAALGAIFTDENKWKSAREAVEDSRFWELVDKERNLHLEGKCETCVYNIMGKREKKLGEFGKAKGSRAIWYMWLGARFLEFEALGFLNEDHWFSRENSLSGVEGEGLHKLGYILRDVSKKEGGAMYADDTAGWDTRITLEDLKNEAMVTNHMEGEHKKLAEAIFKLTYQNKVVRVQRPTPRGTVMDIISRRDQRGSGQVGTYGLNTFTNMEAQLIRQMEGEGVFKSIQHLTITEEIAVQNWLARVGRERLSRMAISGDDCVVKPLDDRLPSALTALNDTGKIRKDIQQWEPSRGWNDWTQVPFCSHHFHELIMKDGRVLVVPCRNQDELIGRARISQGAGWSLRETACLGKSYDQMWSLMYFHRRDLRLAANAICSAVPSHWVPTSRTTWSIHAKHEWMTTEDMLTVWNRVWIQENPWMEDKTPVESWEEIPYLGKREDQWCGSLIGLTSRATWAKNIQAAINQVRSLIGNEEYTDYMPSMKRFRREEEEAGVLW

Structure (SMILES): O=C(Nc1ccccn1)Nc1cccs1
- IC50 (Aminopeptidase N): 61.8 µM (active)
- EC50 [1]: > 50 µM (not active)

Structure (SMILES): CC(=O)Nc1ccc2c(c1)ncn2-c1ccccc1
- EC50 (H4): > 120 µM (not active)
- EC50 [2]: < 0.1 µM (inconclusive)
- EC50 [3]: 0.46 µM (active)
- EC50 [4]: 0.218 µM (active)
- EC50 [5]: 0.608 µM (active)

Structure (SMILES): C1=C(c2ccc(-c3ccccc3)cc2)Nc2ncnn2C1c1ccco1 (configuration not stated)
- IC50 (Bcl-2-related protein A1 [6]): > 100 µM (not active)
- IC50 (Bcl-2-related protein A1 [7]): > 100 µM (not active)

Structure (SMILES): CC(C)=CCc1c(O)cc2oc3c(CC=C(C)C)c(O)c(O)c(CC=C(C)C)c3c(=O)c2c1O [GARCINONE E]
- EC50 (HEK293 [8]): 4.78 µM (active)
- IC50 (HEK293 [9]): > 20 µM (inactive)
- IC50 [10]: 2.79 µM (active)
- IC50 (HEK293 [11]): 6.77 µM (active)
- IC50 (Genome polyprotein [12]): > 49.8 µM (not active)
- IC50 [13]: 3.46 µM (active)
- EC50 (Streptococcus): 3.02 µM (active)
- EC50 [14]: 0.813 µM (active)
- IC50 (HEK293 [15]): 4.65 µM (inactive)

Structure (SMILES): Oc1ccc(/C=N/N2CCOCC2)c(O)c1O
- IC50 (Genome polyprotein [16]): 45 µM (active)
- IC50 [17]: 10.3 µM (active)
- IC50 [18]: > 73.5 µM (inactive)
- IC50 [19]: 11.6 µM (active)
